Reference: US20240109900A1, “AZABICYCLIC SHP2 INHIBITORS” (IRBM S.P.A., priority 2021, published 2024)
Like-named read-outs stand apart in the source and are kept apart here.

How the values were obtained:
[1] = target: SHP-2 enzyme (Met1-Leu525) (Homo sapiens (Human), UniProt Q06124); assay: SHP2 inhibition enzymatic assay; assay type: biochemical; conditions: read-out: SHP2wt-IC50
How it was run: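 SHP-2 (Met1-Leu525), 0.5 nM, activated with 500 nM IRS1 bis-phosphopeptide, preincubated 30 min with compounds in HEPES pH 7.2 buffer with 5 mM DTT. 75 μM DiFMUP added for 30 min at room temperature, stopped with bpV; fluorescence read. IC50 from four-parameter logistic fit of % inhibition.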

[2] = tested on: ERK phosphorylation in KYSE-520 cells; assay: Phospho-ERK cellular assay; assay type: cell-based; conditions: Homo sapiens, KYSE-520 cells, 2 h at 37° C., phospho-ERK1/2 (Thr202/Tyr204) TR-FRET, read-out: PERK IC50
How it was run: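 TR-FRET read-out of ERK1/2 Thr202/Tyr204 phosphorylation was taken after overnight antibody incubation at room temperature. Before that, KYSE-520 cells were treated 2 h at 37 °C with compound dilutions and lysed 30 min. Percent inhibition relative to vehicle and cell-free wells was fitted four-parametrically to give IC50.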

[3] = 0.5 nM SHP-2 activated by 500 nM IRS1 peptide, 75 μM DiFMUP substrate

Sequence of SHP-2 enzyme (Met1-Leu525) (Q06124 1-525): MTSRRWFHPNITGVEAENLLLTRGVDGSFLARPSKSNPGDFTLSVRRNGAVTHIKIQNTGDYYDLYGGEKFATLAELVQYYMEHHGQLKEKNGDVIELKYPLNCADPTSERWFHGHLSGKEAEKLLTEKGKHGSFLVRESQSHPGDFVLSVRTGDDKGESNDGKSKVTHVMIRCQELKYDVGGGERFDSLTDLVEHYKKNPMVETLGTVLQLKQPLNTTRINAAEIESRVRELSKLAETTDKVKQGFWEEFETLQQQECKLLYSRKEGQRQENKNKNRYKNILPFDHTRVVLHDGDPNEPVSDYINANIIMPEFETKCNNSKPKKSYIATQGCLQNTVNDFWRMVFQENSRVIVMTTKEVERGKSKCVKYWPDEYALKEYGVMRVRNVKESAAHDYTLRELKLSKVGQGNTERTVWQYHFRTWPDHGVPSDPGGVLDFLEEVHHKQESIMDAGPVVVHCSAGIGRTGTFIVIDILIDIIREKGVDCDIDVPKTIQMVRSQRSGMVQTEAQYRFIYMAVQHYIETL

Structure (SMILES) | IC50 [1] [nM] | IC50 [2] [nM] | IC50 [1, 3] [nM] | IC50 ([2]; KYSE-520, 2 h) [nM]
Cc1csc(C2(CN)C3CCN(c4nc5nc(Sc6ccnc(N)c6Cl)cnc5[nH]4)CC32)n1 (stereo not drawn) [Example 70, 4-((2-(7-(aminomethyl)-7-(4-methylthiazol-2-yl)-3-azabicyclo[4.1.0]heptan-3-yl)-1H-imidazo[4,5-b]pyrazin-5-yl)thio)-3-chloropyridin-2-amine] | < 500 | < 1000 |  | 
NCC1(c2ccccc2)C2CCN(c3cnc(Sc4cccnc4C(F)(F)F)c(N)n3)CC21 (stereo not drawn) [Example 71, 6-(7-(aminomethyl)-7-phenyl-3-azabicyclo[4.1.0]heptan-3-yl)-3-((2-(trifluoromethyl)pyridin-3-yl)thio)pyrazin-2-amine] |  |  | < 500 | > 5000
NCC1(c2ccccn2)C2CCN(c3cnc(Sc4cccnc4C(F)(F)F)c(N)n3)CC21 (stereo not drawn) [Example 72, 6-(7-(aminomethyl)-7-(pyridin-2-yl)-3-azabicyclo[4.1.0]heptan-3-yl)-3-((2-(trifluoromethyl)pyridin-3-yl)thio)pyrazin-2-amine] |  |  | < 500 | < 1000
Cc1csc(C2(CN)C3CCN(c4cnc(Sc5cccnc5C(F)(F)F)c(N)n4)CC32)n1 (stereo not drawn) [Example 73, 6-(7-(aminomethyl)-7-(4-methylthiazol-2-yl)-3-azabicyclo[4.1.0]heptan-3-yl)-3-((2-(trifluoromethyl)pyridin-3-yl)thio)pyrazin-2-amine] |  |  | < 500 | 1000 to 5000
Cc1csc(C2(CN)C3CCN(c4cnc(Sc5ccnc(N)c5Cl)c(N)n4)CC32)n1 (stereo not drawn) [Example 74, 3-((2-amino-3-chloropyridin-4-yl)thio)-6-(7-(aminomethyl)-7-(4-methylthiazol-2-yl)-3-azabicyclo[4.1.0]heptan-3-yl)pyrazin-2-amine] | < 500 | 1000 to 5000 |  | 
NCC1C2CCN(c3cnc(Sc4cccnc4C(F)(F)F)c(N)n3)CC12 (stereo not drawn) [Example 75, 6-(7-(aminomethyl)-3-azabicyclo[4.1.0]heptan-3-yl)-3-((2-(trifluoromethyl)pyridin-3-yl)thio)pyrazin-2-amine] |  |  | < 500 | > 5000
Cc1csc(C2(CN)C3CCN(c4ncc(Sc5ccnc(N)c5Cl)c5nccn45)CC32)n1 (stereo not drawn) [Example 76, 4-((5-(7-(aminomethyl)-7-(4-methylthiazol-2-yl)-3-azabicyclo[4.1.0]heptan-3-yl)imidazo[1,2-c]pyrimidin-8-yl)thio)-3-chloropyridin-2-amine] | < 500 | > 5000 |  | 
Cc1csc(C2(CN)C3CCN(c4cnc5c(-c6cccc(Cl)c6Cl)n[nH]c5n4)CC32)n1 (stereo not drawn) [Example 77, (3-(3-(2,3-dichlorophenyl)-1H-pyrazolo[3,4-b]pyrazin-6-yl)-7-(4-methylthiazol-2-yl)-3-azabicyclo[4.1.0]heptan-7-yl)methanamine] |  |  | < 500 | < 1000
Cc1csc([C@@]2(CN)[C@@H]3CCN(c4cnc5c(-c6cccc(Cl)c6Cl)n[nH]c5n4)C[C@@H]32)n1 [Example 78, ((1S,6R,7S)-3-(3-(2,3-dichlorophenyl)-1H-pyrazolo[3,4-b]pyrazin-6-yl)-7-(4-methylthiazol-2-yl)-3-azabicyclo[4.1.0]heptan-7-yl)methanamine] |  |  | < 500 | < 1000
Cc1csc([C@@]2(CN)[C@@H]3CCN(c4cnc5c(-c6ccc7nn(C)cc7c6Cl)n[nH]c5n4)C[C@@H]32)n1 [Example 79, ((1S,6R,7S)-3-(3-(4-chloro-2-methyl-2H-indazol-5-yl)-1H-pyrazolo[3,4-b]pyrazin-6-yl)-7-(4-methylthiazol-2-yl)-3-azabicyclo[4.1.0]heptan-7-yl)methanamine] |  |  | < 500 | < 1000
NCC1(c2ccccc2)C2CCN(c3cnc4c(-c5cccc(Cl)c5Cl)n[nH]c4n3)CC21 (stereo not drawn) [Example 80, (3-(3-(2,3-dichlorophenyl)-1H-pyrazolo[3,4-b]pyrazin-6-yl)-7-phenyl-3-azabicyclo[4.1.0]heptan-7-yl)methanamine] |  |  | < 500 | < 1000
Cn1cc2c(Cl)c(-c3n[nH]c4nc(N5CCC6C(C5)C6(CN)c5ccccc5)cnc34)ccc2n1 (stereo not drawn) [Example 81, (3-(3-(4-chloro-2-methyl-2H-indazol-5-yl)-1H-pyrazolo[3,4-b]pyrazin-6-yl)-7-phenyl-3-azabicyclo[4.1.0]heptan-7-yl)methanamine] |  |  | < 500 | < 1000
NCC1(c2ccccn2)C2CCN(c3cnc4c(-c5cccc(Cl)c5Cl)n[nH]c4n3)CC21 (stereo not drawn) [Example 82, (3-(3-(2,3-dichlorophenyl)-1H-pyrazolo[3,4-b]pyrazin-6-yl)-7-(pyridin-2-yl)-3-azabicyclo [4.1.0]heptan-7-yl)methanamine] |  |  | < 500 | < 1000
NCC1(c2ncccn2)C2CCN(c3cnc4c(-c5cccc(Cl)c5Cl)n[nH]c4n3)CC21 (stereo not drawn) [Example 83, (3-(3-(2,3-dichlorophenyl)-1H-pyrazolo[3,4-b]pyrazin-6-yl)-7-(pyrimidin-2-yl)-3-azabicyclo [4.1.0]heptan-7-yl)methanamine] |  |  | < 500 | < 1000
Cc1csc(C2(CN)C3CCN(c4cnc5c(-c6ccccc6Cl)n[nH]c5n4)CC32)n1 (stereo not drawn) [Example 84, (3-(3-(2-chlorophenyl)-1H-pyrazolo[3,4-b]pyrazin-6-yl)-7-(4-methylthiazol-2-yl)-3-azabicyclo[4.1.0]heptan-7-yl)methanamine] |  |  | < 500 | < 1000
Cc1csc(C2(CN)C3CCN(c4cnc5c(-c6cccc(Cl)c6)n[nH]c5n4)CC32)n1 (stereo not drawn) [Example 85, (3-(3-(3-chlorophenyl)-1H-pyrazolo[3,4-b]pyrazin-6-yl)-7-(4-methylthiazol-2-yl)-3-azabicyclo[4.1.0]heptan-7-yl)methanamine] |  |  | < 500 | < 1000
Cc1csc(C2(CN)C3CCN(c4cnc5c(-c6cccc(F)c6F)n[nH]c5n4)CC32)n1 (stereo not drawn) [Example 86, (3-(3-(2,3-difluorophenyl)-1H-pyrazolo[3,4-b]pyrazin-6-yl)-7-(4-methylthiazol-2-yl)-3-azabicyclo[4.1.0]heptan-7-yl)methanamine] |  |  | < 500 | < 1000
COc1cccc(-c2n[nH]c3nc(N4CCC5C(C4)C5(CN)c4nc(C)cs4)cnc23)c1Cl (stereo not drawn) [Example 87, (3-(3-(2-chloro-3-methoxyphenyl)-1H-pyrazolo[3,4-b]pyrazin-6-yl)-7-(4-methylthiazol-2-yl)-3-azabicyclo[4.1.0]heptan-7-yl)methanamine] |  |  | < 500 | < 1000
Cc1csc(C2(CN)C3CCN(c4cnc5c(-c6cccc7ncccc67)n[nH]c5n4)CC32)n1 (stereo not drawn) [Example 88, (7-(4-methylthiazol-2-yl)-3-(3-(quinolin-5-yl)-1H-pyrazolo[3,4-b]pyrazin-6-yl)-3-azabicyclo[4.1.0]heptan-7-yl)methanamine] |  |  | < 500 | < 1000
Cc1csc(C2(CN)C3CCN(c4cnc5c(-c6cccc7ccccc67)n[nH]c5n4)CC32)n1 (stereo not drawn) [Example 89, (7-(4-methylthiazol-2-yl)-3-(3-(naphthalen-1-yl)-1H-pyrazolo[3,4-b]pyrazin-6-yl)-3-azabicyclo[4.1.0]heptan-7-yl)methanamine] |  |  | < 500 | < 1000
Cc1csc(C2(CN)C3CCN(c4cnc5c(-c6cccnc6C(F)(F)F)n[nH]c5n4)CC32)n1 (stereo not drawn) [Example 90, (7-(4-methylthiazol-2-yl)-3-(3-(2-(trifluoromethyl)pyridin-3-yl)-1H-pyrazolo[3,4-b]pyrazin-6-yl)-3-azabicyclo[4.1.0]heptan-7-yl)methanamine] |  |  | < 500 | < 1000
